Assay results from US20040024033A1 (priority 1998, published 2004).
Like-named read-outs stand apart in the source and are kept apart here.

Columns and labels:
[1] = test system: human KB-8511 epidermoid carcinoma; assay type: in vivo, female BALB/c nude mice
Experimental: (§1) Female or male BALB/c nu/nu (nude) mice are kept under sterile conditions (10 to 12 mice per Type III cage) with free access to food and water. Mice weigh between 20 and 25 grams at the time of tumor implantation. Tumors are established by subcutaneous injection of cells (minimum 2×10^6 cells in 100 μl PBS or medium) in carrier mice (4-8 mice per cell line). The resulting tumors are serially passaged for a minimum of three consecutive transplantations prior to start of treatment. Tumor fragments (approx. 25 mg) are implanted s.c. into the left flank of animals with a 13-gauge trocar needle while the mice are exposed to Forene (Abbott, Switzerland) anesthesia.
(§2) Tumor growth and body weights are monitored once or twice weekly. All treatments are administered intravenously (i.v.) and are initiated when a mean tumor volume of approximately 100 to 250 mm^3 is attained, depending upon the tumor type. Tumor volumes are determined using the formula […] (see Cancer Chemother. Pharmacol. 24:148-154, [1989]). Treatments with epothilone B vary the dose and the frequency of administration. Comparator agents are administered according to previously determined optimal treatment regimens. In addition to presenting changes in tumor volumes over the course of treatment, antitumor activity is expressed as T/C% (mean increase of tumor volumes of treated animals divided by the mean increase of tumor volumes of control animals multiplied by 100). Tumor regression (%) represents the smallest mean tumor volume compared to the mean tumor volume at the start of treatment, according to the formula Regression (%)=(1−Vend/Vstart)×100 (Vend=final mean tumor volume, Vstart=mean tumor volume at the start of treatment. Any animals in which the tumor has reached a size exceeding approximately 1.5 to 2.5 cm^3 are sacrificed. Details can be found below.
Tumor fragments of approximately 25 mg are implanted into the left flank of each female nude mouse (n=8 per group). Treatments are started on day 13 after tumor transplantation. epothilone B is administered once at 4 mg/kg, i.v. on day 13, or once per week at 4, 2 or 1 mg/kg, i.v., (on days 13, […] and 27). TAXOL® is administered i.v. at 20 mg/kg/day, every second day for 5 treatments (days 13, 15, 17, 19 and 21). Antitumor activity is expressed as T/C% (mean increase of tumor volumes of treated animals divided by the mean increase of tumor volumes of control animals multiplied by 100). Tumor regression (%) represents the final mean tumor volume compared to the mean tumor volume at the start of treatment. Changes (Δ) in Tumor volumes represent the tumor volume on the last treatment day minus the tumor volume on the first treatment day. Statistical analyses on Δ tumor volumes uses Dunnett's test to compare treatment groups to controls. […]

[2] = test system: human estrogen-dependent ZR-75-1 breast tumor; assay: Antitumor effect against s.c. transplanted ZR-75-1 tumors; assay type: in vivo, female BALB/c nude mice
Experimental: as §1, §2
Tumor fragments of approximately 25 mg are implanted into the left flank of each female nude mouse (n=6 per group); a subcutaneous estrogen pellet is placed in the opposite flank. Treatments are started on day 19 after tumor transplantation. epothilone B is administered at 1, 2 or 4 mg/kg, i.v., either once per week (days 19, 26 and 33) or every second week (days 19 and 33). Data presented are from animals surviving to day 47, the last day of controls. Antitumor activity is expressed as T/C% (mean increase of tumor volumes of treated animals divided by the mean increase of tumor volumes of control animals multiplied by 100). Tumor regression (%) represents the final mean tumor volume compared to the mean tumor volume at the start of treatment. Changes (A) in tumor volume represent the tumor volume on the last treatment day minus the tumor volume on the first treatment day.

[3] = test system: A549 non small cell lung tumors
Experimental: 3-10 million cells are implanted s.c. into the right axillary (lateral) region of outbred athymic (nu/nu) mice, and are allowed to grow until a tumor volume of approximately 100 mm^3 is established. Epothilone B is formulated in 1% DMSO in 5% glucose in distilled water (D5W), and administered i.v. either once only, once per week, 3 times per week, or 5 times per week. Positive controls are carried out with clinical formulations of TAXOL® diluted 6 fold with D5W and administered i.v. 3×/week.
Antitumor activity is expressed as % T/C (comparing Δ tumor volumes for treatment group to vehicle control group) at the end of the experiment. Regressions are calculated using the formula: −(T/T0−1)×100% , where T is the tumor volume for the treatment group at the end of the experiment, and T0 is the tumor volume at the beginning of the experiment. Statistical significance is evaluated using a one-tailed Student's t-test.
Treatments are started on day 16 post implantation (10 million cells/animal). Epothilone B is administered i.v. once at 6 mg/kg (day 16), once weekly at 4 mg/kg (days 16, 23, and 30), three times per week at 1.5 mg/kg (days 16, 18, 21, 23, 25, 28, 30, 32, and 35), or five times per week at 0.5 mg/kg (days 16-18, 21-25, 28-32, and 35-36). TAXOL® is administered i.v. three times per week at 20 mg/kg (days 16, 18, 21, 23, 25, 28, 30, 32, and 35) as split doses of 10 mg/kg given one hour apart. Vehicle control (1% DMSO/D5W) is administered i.v. three times per week (days 16, 18, 21, 23, 25, 28, 30, 32, and 35). All final data are recorded on day 37. A single asterisk (*) indicates p<0.05, and a double asterisk (**) indicates p<0.01, using a one-tailed Student's t-Test.

[4] = test system: human HCT-15 colon carcinoma; assay type: in vivo, female BALB/c nude mice; details: 4 mg/kg, i.v. once on day 14
Experimental: as §1, §2
Tumor fragments of approximately 25 mg are implanted into the left flank of each female nude mouse (n=8 per group). Treatments are started on day 14 after tumor transplantation. Epothilone B is administered once at 4 mg/kg, i.v. on day 14.5-Fluorouracil is administered at 75 mg/kg, i.v., on days 14 and 21. TAXOL® is administered i.v. at 20 mg/kg/day, every second day for 5 treatments (days 14, 16, 18, 20 and 22). Antitumor activity is expressed as T/C% (mean increase of tumor volumes of treated animals divided by the mean increase of tumor volumes of control animals multiplied by 100). Tumor regression (%) represents the final mean tumor volume compares to the mean tumor volume at the start of treatment. Δ Tumor volumes represent the tumor volume on the last treatment day minus the tumor volume on the first treatment day. Statistical analyses on Δ tumor volumes uses Dunnett's test to compare treatment groups to controls. Statistical analyses on body weight changes uses paired t-tests comparing body weights before treatment to those at the end of treatment; mice weigh ˜20-25 g at the start of treatment. Not significant is indicated by the abbreviation ,ns”. Data presented are means±SEM from animals surviving to the end of the experiment.

[5] = 1 mg/kg, i.v. every 7 days, day 47
[6] = 2 mg/kg, i.v. every 7 days, day 47
[7] = 4 mg/kg, i.v. every 7 days, day 47
[8] = 4 mg/kg, i.v. every 14 days, day 47

Question: Which “mice with undetectable tumors at the end of the experiment” value ([1]; 2 mg/kg/week) does the source give for `C/C(=C\c1csc(C)n1)[C@@H]1C[C@@H]2O[C@]2(C)CCC[C@H](C)[C@H](O)[C@@H](C)C(=O)C(C)(C)[C@@H](O)CC(=O)O1` [epothilone B] here?
Answer: 1/8

Question: And the “% Body Weight Change” value ([1]; 4 mg/kg, i.v. once per week)?
Answer: −5±7%

Question: And the T/C ([1]; 4 mg/kg, i.v. once per week)?
Answer: Regres-

Question: And the “mice with undetectable tumors at the end of the experiment” value ([1]; 4 mg/kg/week)?
Answer: 5/8

Question: What about the Regression [2, 5] of the same compound?
Answer: none

Question: What about the “T/C (%)” value [2, 5] of the same compound?
Answer: 86%

Question: What about the “Δ Body Weight” value [2, 5] of the same compound?
Answer: 0.3 g

Question: What about the Regression [2, 6] of the same compound?
Answer: none

Question: And the “T/C (%)” value [2, 6]?
Answer: 40%

Question: What about the “Δ Body Weight” value [2, 6] of the same compound?
Answer: -3.5 g

Question: And the “T/C (%)” value [2, 7]?
Answer: 1%

Question: And the “Δ Body Weight” value [2, 7]?
Answer: -1.2 g

Question: What about the Regression ([2]; 4 mg/kg, i.v. every 7 days, transient) of the same compound?
Answer: −8%

Question: What about the Regression [2, 8] of the same compound?
Answer: none

Question: What about the “T/C (%)” value [2, 8] of the same compound?
Answer: 46%

Question: And the “Δ Body Weight” value [2, 8]?
Answer: -1.6 g

Question: What about the body weight loss ([3]; 0.5 mg/kg i.v. 5x/week) of the same compound?
Answer: 23%

Question: And the Dead/Total ([3]; 1.5 mg/kg i.v. 3x/week)?
Answer: all animals have to be euthanatized in the first week of the experiment due to toxicity

Question: What about the body weight loss ([3]; 4 mg/kg i.v. 1x/week) of the same compound?
Answer: 13%

Question: What about the “% Regression” value ([3]; 6 mg/kg i.v. once, day 37) of the same compound?
Answer: none

Question: And the “% T/C” value ([3]; 6 mg/kg i.v. once, day 37)?
Answer: 41%

Question: What about the Dead/Total ([3]; 6 mg/kg, i.v. once) of the same compound?
Answer: 0/8

Question: What about the “% Body Weight Change” value [4] of the same compound?
Answer: 2 ± 2%

Question: And the “Mortalities due to treatment” value [4]?
Answer: No mortalities

Question: And the T/C [4]?
Answer: Regres-

Question: And the “D Body Weight” value ([4]; mean ± SEM)?
Answer: 0.4 ± 0.3 g
